Structures can show the parent of a compound that is named as a salt. Bounds are passed on as bounds.

This experiment concerns the target T1, Human VAP-1 enzyme (Homo sapiens, UniProt Q16853).
T1 construct: purchased R&D Systems, Inc
T1 sequence (Q16853 1-763): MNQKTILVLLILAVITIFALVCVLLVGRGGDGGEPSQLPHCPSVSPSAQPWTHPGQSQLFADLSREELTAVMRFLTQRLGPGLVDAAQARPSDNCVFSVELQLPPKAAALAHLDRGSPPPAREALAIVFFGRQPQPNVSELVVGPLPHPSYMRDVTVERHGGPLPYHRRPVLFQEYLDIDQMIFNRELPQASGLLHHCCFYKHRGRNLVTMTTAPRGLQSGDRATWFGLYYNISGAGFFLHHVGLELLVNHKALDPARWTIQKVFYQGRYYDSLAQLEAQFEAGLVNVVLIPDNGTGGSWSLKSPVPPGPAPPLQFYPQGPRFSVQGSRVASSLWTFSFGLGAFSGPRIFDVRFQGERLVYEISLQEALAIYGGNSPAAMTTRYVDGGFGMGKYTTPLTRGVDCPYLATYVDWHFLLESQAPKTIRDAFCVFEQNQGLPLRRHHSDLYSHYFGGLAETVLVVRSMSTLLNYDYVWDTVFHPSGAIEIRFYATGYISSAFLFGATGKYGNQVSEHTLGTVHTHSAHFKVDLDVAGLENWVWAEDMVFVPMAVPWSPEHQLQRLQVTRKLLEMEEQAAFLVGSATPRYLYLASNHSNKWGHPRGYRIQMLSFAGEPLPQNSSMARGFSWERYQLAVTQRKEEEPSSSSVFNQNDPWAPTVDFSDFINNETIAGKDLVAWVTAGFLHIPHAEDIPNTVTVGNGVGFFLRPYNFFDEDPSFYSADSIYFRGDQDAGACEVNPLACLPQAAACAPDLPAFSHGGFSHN
As to the kind of experiment: Human VAP-1 enzyme inhibition test. Type of experiment: biochemical. Conditions: 1 h; compound 30 nM; 14C-benzylamine 100 μM; read-out: inhibition ratio (human VAP-1 enzyme). As to the method: Human VAP-1 enzyme inhibition test
This test was conducted by modifying the method of P. H. Yu et al. (Diabetologia 40 1243 (1997)). Human VAP-1 enzyme (R&D Systems, Inc.) was pre-incubated in a 96-well plate with the compound dissolved in dimethylsulfoxide at room temperature for 20 minutes. Next, in a solution to the final volume of 200 μL, the enzyme reaction solution was incubated with ^14C-benzylamine (final concentration 100 μM) at 37° C. for 1 hour. The reaction was terminated by the addition of 100 μL of 2 M citric acid solution to the reaction solution. The oxidative product was extracted using a toluene/ethyl acetate mixture and the radioactivity was measured with a liquid scintillation counter. The inhibition ratio of the compound was calculated using the following equation. Inhibition ratio={1−[VAP-1 enzyme activity after treatment with the compound]/[VAP-1 enzyme activity in the presence of dimethylsulfoxide alone without the compound]}×100

As to `N=C(N)NC(=O)OCc1cccc(-c2cnc(N3CC(=NOC4CN(CCF)C4)C3)nc2)c1F` [Example 148, 2-Fluoro-3-{2-[3-({[1-(2-fluoroethyl)azetidin-3-yl]oxy}imino)azetidin-1-yl]pyrimidin-5-yl}benzyl carbamimidoylcarbamate], the inhibition at 0.03 µM is at least 50%.

Consider `CCOC(=O)CCCON=C1CCN(c2ncc(-c3cccc(COC(=O)NC(=N)N)c3F)cn2)CC1` [Example 152, Ethyl 4-[({1-[5-(3-{[(carbamimidoylcarbamoyl)oxy]methyl}-2-fluorophenyl)pyrimidin-2-yl]piperidin-4-ylidene}amino)oxy]butanoate], for which the inhibition at 0.03 µM was at least 50%.

`CN(CCON=C1CCN(c2ncc(-c3cccc(COC(=O)NC(=N)N)c3F)cn2)CC1)S(C)(=O)=O` [Example 157, 2-Fluoro-3-[2-(4-{[2-(N-methylmethylsulfonamido)ethoxy]imino}piperidin-1-yl)pyrimidin-5-yl]benzyl carbamimidoylcarbamate hydrochloride]: the inhibition at 0.03 µM was at least 50%.

`CNCCON=C1CCN(c2ncc(-c3cccc(COC(=O)NC(=N)N)c3F)cn2)CC1` [Example 162, 2-Fluoro-3-[2-(4-{[2-(methylamino)ethoxy]imino}piperidin-1-yl)pyrimidin-5-yl]benzyl carbamimidoylcarbamate dihydrochloride]: the inhibition at 0.03 µM is at least 50%.

As for `N=C(N)NC(=O)OCc1cccc(-c2cnc(N3CCC(=NOCCN)CC3)nc2)c1F` [Example 164, 3-(2-{4-[(2-Aminoethoxy)imino]piperidin-1-yl}pyrimidin-5-yl)-2-fluorobenzyl carbamimidoylcarbamate], the inhibition at 0.03 µM was at least 50%.

For `N=C(N)NC(=O)OCc1cccc(-c2cnc(N3CCC(=NOCc4cnn(C5CCCCO5)c4)CC3)nc2)c1F` (centres unmarked) [Example 172, 2-Fluoro-3-{2-[4-({[1-(tetrahydropyran-2-yl)-1H-pyrazol-4-yl]methoxy}imino)piperidin-1-yl]pyrimidin-5-yl}benzyl carbamimidoylcarbamate], the inhibition at 0.03 µM was at least 50%.

Take `N=C(N)NC(=O)OCc1cccc(-c2cnc(N3CCC(=NOCCN4CCOC4=O)CC3)nc2)c1F` [Example 179, 2-Fluoro-3-[2-(4-{[2-(2-oxooxazolidin-3-yl)ethoxy]imino}piperidin-1-yl)pyrimidin-5-yl]benzyl carbamimidoylcarbamate]: the inhibition at 0.03 µM was at least 50%.

On to `N=C(N)NC(=O)OCc1cccc(-c2cnc(N3CCC(=NOCCN4CCOCC4=O)CC3)nc2)c1F` [Example 180, 2-Fluoro-3-[2-(4-{[2-(3-oxomorpholino)ethoxy]imino}piperidin-1-yl)pyrimidin-5-yl]benzyl carbamimidoylcarbamate], for which the inhibition at 0.03 µM is at least 50%.

On to `CON=C1CN(c2ncc(-c3cccc(COC(=O)NC(=N)N)c3F)cn2)C1` [Example 184, 2-Fluoro-3-{2-[3-(methoxyimino)azetidin-1-yl]pyrimidin-5-yl}benzyl carbamimidoylcarbamate 1/2 L-tartrate], for which the inhibition at 0.03 µM was at least 50%.

Regarding `CCON=C1CN(c2ncc(-c3cccc(COC(=O)NC(=N)N)c3F)cn2)C1` [Example 188, 3-{2-[3-(Ethoxyimino)azetidin-1-yl]pyrimidin-5-yl}-2-fluorobenzyl carbamimidoylcarbamate 1/2 L-tartrate], the inhibition at 0.03 µM is at least 50%.

For the molecule `O=C(O)C(O)C(O)C(=O)O.[2H]C([2H])([2H])ON=C1CN(c2ncc(-c3cccc(COC(=O)NC(=N)N)c3F)cn2)C1` [Example 192, 2-Fluoro-3-(2-{3-[(methoxy-d3)imino]azetidin-1-yl}pyrimidin-5-yl)benzyl carbamimidoylcarbamate 1/2 L-tartrate], the inhibition at 0.03 µM was at least 50%.

As for `O=C(O)/C=C\C(=O)O.[2H]C([2H])([2H])ON=C1CN(c2ncc(-c3cccc(COC(=O)NC(=N)N)c3F)cn2)C1` [Example 194, 2-Fluoro-3-(2-{3-[(methoxy-d3)imino]azetidin-1-yl}pyrimidin-5-yl)benzyl carbamimidoylcarbamate maleate], the inhibition at 0.03 µM was at least 50%.

Consider `O=C(O)CCC(=O)O.[2H]C([2H])([2H])ON=C1CN(c2ncc(-c3cccc(COC(=O)NC(=N)N)c3F)cn2)C1` [Example 195, 2-Fluoro-3-(2-{3-[(methoxy-d3)imino]azetidin-1-yl}pyrimidin-5-yl)benzyl carbamimidoylcarbamate 1/2 succinate], for which the inhibition at 0.03 µM is at least 50%.

For the molecule `N=C(N)NC(=O)OCc1cccc(-c2cnc(N3CC(=NOCCF)C3)nc2)c1F` [Example 196, 2-Fluoro-3-(2-{3-[(2-fluoroethoxy)imino]azetidin-1-yl}pyrimidin-5-yl)benzyl carbamimidoylcarbamate 1/2 L-tartrate], the inhibition at 0.03 µM is at least 50%.

`O=C(O)C(O)C(O)C(=O)O.[2H]C([2H])([2H])ON=C1CN(c2ncc(-c3cccc(COC(=O)NC(=N)N)c3F)cc2F)C1` [Example 204, 2-Fluoro-3-(5-fluoro-6-{3-[(methoxy-d3)imino]azetidin-1-yl}pyridin-3-yl)benzyl carbamimidoylcarbamate 1/2 L-tartrate]: the inhibition at 0.03 µM was at least 50%.

As to `O=C(O)/C=C\C(=O)O.[2H]C([2H])([2H])ON=C1CN(c2ncc(-c3cccc(COC(=O)NC(=N)N)c3F)cc2F)C1` [Example 206, 2-Fluoro-3-(5-fluoro-6-{3-[(methoxy-d3)imino]azetidin-1-yl}pyridin-3-yl)benzyl carbamimidoylcarbamate maleate], the inhibition at 0.03 µM is at least 50%.

Turning to `O=C(O)CCC(=O)O.[2H]C([2H])([2H])ON=C1CN(c2ncc(-c3cccc(COC(=O)NC(=N)N)c3F)cc2F)C1` [Example 207, 2-Fluoro-3-(5-fluoro-6-{3-[(methoxy-d3)imino]azetidin-1-yl}pyridin-3-yl)benzyl carbamimidoylcarbamate 1/2 succinate], the inhibition at 0.03 µM is at least 50%.

Source of the values: patent US10759781B2, “Substituted guanidine derivatives” (UBE INDUSTRIES, LTD., priority 2015, dated 2020).
